Test system: partially purified slow reacting substance of anaphylaxis (SRS-A) obtained from guinea pig lung
Assay: Inhibition of SRS-A induced contraction of guinea pig ileum
Settings: compound concentration 5×10^-6 M, agonist SRS-A 40 μg/ml, 15 min, 5 µM
Experimental: The SRS-A antagonist activity of the compounds of this invention is measured by the ability of the active medicament to inhibit SRS-A induced contraction of guinea pig ileum. In this test system, sections of ileum are resected from guinea pigs and placed in 5 ml. tissue baths containing a modified Tyrode's solution. One end of the tissue is fixed to a glass tissue holder, the other is connected to a force-displacement transducer and the tissue is placed under a tension of 500 mg. Isometric tissue contractions are recorded on a six channel polygraph. Baths are constantly aerated with 95% O2 -5% CO2. After a 20 minute stabilization period a concentration of the appropriate agonist which provides a contraction height of 60-80% of the maximum obtainable to that agonist (as determined from full sequential concentration--response curves in separate experiments) is added to the tissue bath and the response recorded. The procedure is repeated until reproducible responses are obtained. […] Percent inhibition produced by the test compound is calculated by subtracting the mean percentage change in control tissue from the mean percentage change in tissues exposed to the test compound. Additional compounds are then evaluated as long as the tissue remains reproducibly responsive to the agonist. […]

## O=C(CS(=O)(=O)c1ccc2c(c1)CN(S(=O)(=O)NS(=O)(=O)N1CCc3ccc(S(=O)(=O)CC(=O)c4ccc(Cl)cc4)cc3C1)CC2)c1ccc(Cl)cc1 [Compound 1, N,N'-bis[7-(4-chlorobenzoylmethylsulfonyl)-1,2,3,4-tetrahydroisoquinolyl]disulfonylimide]
  percent antagonism of SRS-A induced contraction: 60%

— patent US4385047A, “Antiallergic imidodisulfamides” (SmithKline Beckman Corporation, priority 1981, dated 1983)
